Laboratory results as given in article PMC7389181, “The interaction with fungal cell wall polysaccharides determines the salt tolerance of antifungal plant defensins” (The Cell Surface, 2019).

What was measured:
C. albicans = assay: Checkerboard synergy assay with polysaccharide synthesis inhibitors; format: cell-based, Candida albicans; details: for MIC: Candida albicans, read-out: MIC of polysaccharide synthesis inhibitor alone
Experimental: (§1) Saccharomyces cerevisiae deletion strains were retrieved from the haploid non-essential deletion collection (ThermoScientific) and were isogenic with the wild type BY4741 (MATa his3Δ1 leu2Δ0 met15Δ0 ura3Δ0). Candida albicans experiments were performed with strain ATCC90028.
(§2) Antifungal assays were performed as described in ([Bleackley et al., 2014]). S. cerevisiae cells were prepared by diluting to an OD600 = 0.01 and C. albicans cells were diluted to OD600 = 0.0002 in ½ strength potato dextrose broth (1/2 PDB) (Becton Dickinson). Assays investigating the combined effect of chemical cell wall synthesis inhibitors with defensins were performed as described in ([Bleackley et al., 2017]). Synergy was assessed using the fractional inhibitory concentration (FIC) equation. FIC=MICAcombination/MICAalone+MICBcombination/MICBalone
(§3) Synergy is defined as an FIC value of less than 0.5. Assays investigating the activity of defensins in salt were set up using the same checkerboard method as the synergy assays but with NaCl in place of one of the antifungal molecules.

S. cerevisiae [1] = assay: Checkerboard synergy assay with polysaccharide synthase inhibitors; format: cell-based, Saccharomyces cerevisiae; details: average of three independent experiments ± standard deviation, synergy FIC <0.5
Experimental: as §2, §3

[2] = Polysaccharide binding (solution depletion) to chitin; parameters: species or system shrimp; details: one-site binding model
Experimental: (§4) Defensin binding to polysaccharides was examined using the protocol described in ([Osmond et al., 2001]) with some modifications. Briefly, the insoluble polysaccharides, yeast β-glucan (Megazyme), chitin from shrimp shells (Sigma), and microcrystalline cellulose (Sigma) were washed twice with water and once with phosphate buffered saline (PBS) and resuspended in PBS at 100 mg/mL. The appropriate volume of polysaccharide suspension was transferred to a 1.5 mL microfuge tube. PBS was added to increase the volume to 47.5 µL followed by defensin (2.5 µL of 0.8 mg/mL in H2O). This mixture was incubated on a rotating wheel at room temperature for 30 min before insoluble polysaccharide was pelleted at 17 000 g. Supernatant (25 µL) was transferred to a clean 1.5 mL microfuge tube, mixed with 5 µL of a 1:9 mix of Bond Breaker reducing agent (ThermoFisher):NuPage LDS Loading Buffer (Invitrogen) and heated to 95 °C for 20 min. Samples (20 µL) were loaded onto a 10% NOVEX Bolt BisTris gel (Life Technologies). Proteins were visualized by staining with RAPIDstain (Calbiochem) and imaged on a ChemiDoc (Bio-Rad). Densitometry was performed on resulting bands using the quantitation tool in ImageLab (V4.0 Bio-Rad) and the abundance of defensin remaining in the supernatant was calculated relative to the no polysaccharide control. Relative binding to the pellet was inferred as the amount of defensin that had been depleted from the supernatant (1-relative binding to pellet). All experiments were performed in triplicate. Kd values were calculated by plotting the relative binding vs the polysaccharide concentration in Prism (V7.0 GraphPad) and using the non-linear regression tool with the one-site binding hyperbola equation.

S. cerevisiae BY4741 [3] = assay: Antifungal growth assay, wild type; format: cell-based, Saccharomyces cerevisiae; details: 1/2 PDB, twofold dilution series, lowest concentration with no visible growth, three independent experiments
Experimental: as §1, §2

S. cerevisiae BY4741 [4] = assay: Survival assay in the presence of exogenous 1,3-β-glucan (laminarin); format: cell-based, Saccharomyces cerevisiae; details: plated on YPD agar; for Laminarin concentration protecting against the antifungal activity of NaD1: 20 µM NaD1, 1 h
Experimental: To assess the effect of exogenous 1,3-β-glucan on the activity of NaD1, a survival assay was employed essentially as described in ([Bleackley et al., 2017]). A two-fold dilution series of laminarin (Sigma) from 50 mg/mL was prepared in MilliQ H2O and 10 µL of each concentration plus a no laminarin control were transferred to the wells of a U-bottom 96 well microtitre plate (Greiner Bio-one). NaD1 (10 µL of 200 µM solution) was added to each laminarin preparation. Controls with no NaD1 or laminarin were also prepared. An overnight culture of S. cerevisiae BY4741 cells was diluted to OD600 = 0.1 in ½ PDB. The diluted yeast cell suspension was then added to each of the wells of the microtitre plate and incubated at 30 °C with shaking at 750 rpm in a Thermomixer (Eppendorff) for 1 h. A fivefold dilution series of each treatment was then spotted onto YPD agar (1% yeast extract, 2% peptone, 2% dextrose, 2% agar) and incubated at 30 °C prior to imaging.

S. cerevisiae [5] = assay: Growth inhibition in varying NaCl (checkerboard); format: cell-based, Saccharomyces cerevisiae; details: 1/2 PDB; for Effect of increasing NaCl concentration on growth inhibitory activity: NaCl checkerboard up to about 100 mM, representative of three independent replicates
Experimental: as §2, §3

[6] = test system: yeast cells with intact cell walls; assay: Cell death of intact yeast cells, SYTOX green flow cytometry; format: cell-based, Saccharomyces cerevisiae
Experimental: (§5) Spheroplasts were prepared as outlined in ([Guthrie and Fink, 2002]) with modifications. Cells were prepared with and without the addition of zymolyase (Sigma) and washed twice with ½ PDB with 1 M sorbitol prior to any defensin treatment. Successful hydrolysis of the cell wall was assessed by pelleting an aliquot of spheroplasts, resuspending in MilliQ H2O and assessing cell lysis. For survival assays, intact cells or spheroplasts were diluted in ½ PDB with 1 M sorbitol to an OD600 = 1. NaD1 (10 µL) at 0, 25, 50 or 100 µM was added to 90 µL of prepared cells or spheroplasts and incubated at 30 °C for 30 min. Serial dilutions of each treatment were plated onto YPD and incubated for 24 h at 30 °C prior to imaging. Assessment of the effect of NaCl on the activity of NaD1 on spheroplasts was conducted as described above except for the addition of 100 mM NaCl to the ½ PDB 1 M sorbitol in the appropriate treatment. The cell death indicator, SYTOX green (ThermoFisher), was added to all treatments to a final concentration of 1 µM and FACS analysis was performed using a FACS Canto II (BD biosciences) using the FITC settings. Analysis was performed using Weasel V3.0 (Walter and Eliza Hall Institute of Medical Research).

yeast spheroplasts = assay: Cell death of spheroplasts, SYTOX green flow cytometry; format: cell-based, Saccharomyces cerevisiae
Experimental: as §5

[7] = Polysaccharide binding (solution depletion) to cellulose; details: SDS-PAGE analysis of supernatant, 3 independent experiments
Experimental: as §4, with “Samples (20 µL) were loaded onto a 10% NOVEX Bolt BisTris gel (Life Technologies). Proteins were visualized by staining with RAPIDstain (Calbiochem) and imaged on a ChemiDoc (Bio-Rad).” left out, “Relative binding to the pellet was inferred as the amount of defensin that had been depleted from the supernatant (1-relative binding to pellet). All experiments were performed in triplicate.” left out

S. cerevisiae chs3Δ = assay: Antifungal growth assay, chitin synthase deletion strain; format: cell-based, Saccharomyces cerevisiae; details: 1/2 PDB, twofold dilution series, lowest concentration with no visible growth, three independent experiments
Experimental: as §1, §2

[8] = Polysaccharide binding (solution depletion) to yeast β-glucan; details: one-site binding model
Experimental: as §4

S. cerevisiae fks1Δ = assay: Antifungal growth assay, 1,3-β-glucan synthase deletion strain; format: cell-based, Saccharomyces cerevisiae; details: 1/2 PDB, twofold dilution series, lowest concentration with no visible growth, three independent experiments
Experimental: as §1, §2

[9] = insoluble polysaccharide in PBS, 30 min room temperature, SDS-PAGE densitometry of supernatant, Kd based on concentration of monosaccharide units, ± SEM, three independent replicates
[10] = solution depletion, SDS-PAGE densitometry, polysaccharide mass concentration, 3 independent experiments
[11] = C. albicans checkerboard, synergy defined as FIC < 0.5

Compound: C[C@@H]([C@H](N)C(=O)N[C@H](C(=O)O)[C@H]1O[C@@H](n2ccc(=O)[nH]c2=O)[C@H](O)[C@@H]1O)[C@H](O)c1ccc(O)cn1 [nikkomycin Z, reference compound]
- MIC (C. albicans): 2.5 µg/mL

Compound: NaD1: plant defensin from the ornamental tobacco Nicotiana alata, isolated from flowers (RECKTESNTFPGICITKPPCRKACISEKFTDGHCSKILRRCLCTKPC; UniProt Q8GTM0 26-72, looked up)
- FIC in combination with caspofungin (S. cerevisiae [1]): 0.3 ± 0.06
- Kd [2, 9]: 33 ± 11.8 mM
- Kd, chitin [2, 10]: 6700 ± 2400 µg/mL
- MIC (S. cerevisiae BY4741 [3]): 2.5 µM
- Survival of yeast cells (S. cerevisiae BY4741 [4]; 20 µM NaD1, absence of laminarin, 1 h): eliminated all viable yeast cells
- FIC in combination with caspofungin (C. albicans; [11]): 0.3
- FIC in combination with nikkomycin Z (C. albicans; [11]): 0.92
- Effect of increasing NaCl concentration on growth inhibitory activity (S. cerevisiae [5]): progressively poorer inhibitor
- Effect on cell death ([6]; 1 M sorbitol with 100 mM NaCl, up to 10 µM NaD1, SYTOX green): unaffected
- Cell death (SYTOX green) ([6]; NaD1 5 µM, 1/2 PDB with 1 M sorbitol, 30 °C 30 min): 60%
- NaD1 concentration giving significant cell death (yeast spheroplasts; 1 M sorbitol with 100 mM NaCl, SYTOX green): ≥ 0.313 µM
- Cell death (SYTOX green) (yeast spheroplasts; NaD1 concentrations above 0.625 µM, 1/2 PDB with 1 M sorbitol, 30 °C 30 min): over 60%
- Binding to cellulose [7]: did not bind
- MIC (S. cerevisiae chs3Δ): 2.5 µM
- Kd [8, 9]: 25.9 ± 5 mM
- Kd, β-glucan [8, 10]: 4200 ± 800 µg/mL
- MIC (S. cerevisiae fks1Δ): 1.25 µM

Compound: CC[C@H](C)C[C@H](C)CCCCCCCCC(=O)N[C@H]1C[C@@H](O)[C@@H](NCCN)NC(=O)[C@@H]2[C@@H](O)CCN2C(=O)[C@H]([C@H](O)CCN)NC(=O)[C@H]([C@H](O)[C@@H](O)c2ccc(O)cc2)NC(=O)[C@@H]2C[C@@H](O)CN2C(=O)[C@H]([C@@H](C)O)NC1=O [caspofungin, reference compound]
- MIC (C. albicans): 0.25 µg/mL

Compound: DmAMP1: defensin from Dahlia merckii expressed in Pichia pastoris (ELCEKASKTWSGNCGNTGHCDNQCKSWEGAAHGACHVRNGKHMCFCYFNC; UniProt P0C8Y4 1-50, looked up)
- FIC in combination with caspofungin (S. cerevisiae [1]): 0.6 ± 0.06
- FIC in combination with nikkomycin (S. cerevisiae [1]): 0.64 ± 0.16
- Kd, chitin [2, 9]: Neither TsD10 nor DmAMP1 bound
- MIC (S. cerevisiae BY4741 [3]): 0.31 µM
- Effect of increasing NaCl concentration on growth inhibitory activity (S. cerevisiae [5]): no loss of growth inhibitory activity
- Concentration completely inhibiting growth (S. cerevisiae [5]; absence of added NaCl, absorbance at 595 nm): 0.313 µM
- MIC (S. cerevisiae chs3Δ): 0.31 µM
- Kd, β-glucan [8, 9]: No binding
- MIC (S. cerevisiae fks1Δ): 0.16 µM

Compound: laminarin
- Laminarin concentration protecting against the antifungal activity of NaD1 (S. cerevisiae BY4741 [4]): ≥ 1.25 mg/mL
- Laminarin concentration protecting against the antifungal activity of NaD1 (S. cerevisiae BY4741 [4]; listed as Laminarin): above 1.25 mg/mL
